According to paper PMC12257413, “Discovery of a Novel sp^3‑Rich M1 Positive Allosteric Modulators (PAMs) Chemotype via Scaffold Hopping” (ACS Medicinal Chemistry Letters, 2025):

Assay: Plasma protein binding by equilibrium dialysis, human plasma
Type: in vitro ADME
Settings: fraction unbound in human plasma
Protocol: for 2 seconds (excitation, 480 nm; emission, 530 nm), first add occurred by adding 20 µL of test compound to the cells, and the response was measured for 140 seconds. This is followed by second add; 10 µL (5X) of an EC20 concentration of ACh agonist was added to the cells, and the response of the cells was measured for 125 seconds. Immediately, the third add occurred by adding 12 ul assay buffer or 5X of an EC max concentration of ACh and the response of the cells was measured for 90 seconds. Assay buffer was added to the wells that incubated with compounds followed by EC20 concentration of ACh. […] Calcium fluorescence was recorded as fold over basal fluorescence and raw data were normalized to the maximal response to ACh agonist. Potency (EC50) and maximum response (% ACh Max) for compounds was determined using a four -parameter logist ical equation using GraphPad Prism (La Jolla, CA) or the Dotmatics software platform ( Woburn, MA) : […]
The protein binding of each compound was determined in plasma via equilibrium dialysis employing rapid equilibrium dialysis (RED) plates (ThermoFisher Scientific, Rochester, NY). […]
same manner as the plasma samples in the previously described plasma protein binding assay. Fraction unbound for both plasma and brain samples was determined using Equation 4. […]

Row | Human fuplasma | Structure (SMILES)
1 | 0.01 | Cn1cc(-c2ccc(Cc3cc(C(=O)N[C@H]4CCCC[C@@H]4O)nn3C3CCCC3)cc2)cn1 [17k]
2 | 0.08 | Cn1cc(-c2ccc(Cc3cc(C(=O)N[C@H]4CCOC[C@@H]4O)nn3C3CCCC3)cc2)cn1 [17g]
